Measured values from patent publication US20050142229A1, “Pharmaceutical activity and manufacturing method of the four-plant-derived coronary blood flow enhancing agent” (priority 2003, published 2005).

Test system: isolated guinea pig heart
Test: Effect on coronary blood flow of the isolated guinea pig heart (perfusion with KH solution)
Description: 1. Effect on coronary blood flow of the isolated guinea pig heart. • (1) The perfusion circuit was maintained at 37±1° C. and the perfusate in the condensing tube was thermostatic. The upper end of the condensing tube was connected with reservoir and the lower with aortic cannula via rubber tube. The perfusate level in reservoir A was constant by controlling the height of liquid below the air inlet in reservoir B. The perfusate level was about 50 cm above the aortic root. Constant oxygen was gassed into reservoir A to make the KH solution saturated with oxygen. When full of the oxygenated LH solution, the perfusion tube was clamped. • (2) On […], weighing 300 g, was stunned and exsanguinated via carotid. The chest and pericardium were opened, and then the heart was suspended in the pericardial cradle. The heart was exercised and immediately put into the cold KH solution (4° C.). The remaining blood was pressed out gently. After aortic cannulation at the top of the ascending aorta, the clamp was opened and the coronary venous effluent was present (route: coronary artery→myocardium→right atrium→vena cava and pulmonary artery). The pressure transducer was connected with the apex of heart to record the graphs and count the heart beat. The coronary venous effluent dripped into the measuring cup via a funnel. • (3) Coronary Blood Flow Measurement: The heart was allowed to recover for 10 minutes to stabilize coronary blood flow, heart rate, and heart beat amplitude. The per-minute flow volume was measured consecutively for 3 minutes. If the values were similar, the average was calculated for the normal coronary blood flow. […] The test sample and isoprenaline was injected into the aortic cannula respectively. The per-minute coronary blood flow, heart rate and heart beat duration were measured during 1˜10 min after administration, the maximum and minimum were picked out to caculate the extreme difference. Note: the second administration should not be given until the coronary blood flow returned to normal. Five replicate experiments were conducted to ensure the reproductivity.

[1] = isolated heart, 0.25 μg injected into aortic cannula, X ± SD

## CC(C)NCC(O)c1ccc(O)c(O)c1 (stereo not drawn) [Isoprenaline]
Isolated guinea pig heart
  coronary blood flow (result in words): increased
  heart rate (result in words): increased
  myocardial contraction (result in words): increased
[1]
  Coronary Blood Flow, After administration: 20 ± 4 mL/min
  Heart Rate, After administration: 198 ± 21 time/min
  Heart beat duration, After administration: 62 ± 10 min
